{"source": "patent US12599576B2", "about": "(ANTECIP BIOVENTURES II LLC, priority 2022, dated 2026)", "key": {"[1]": {"experiment": "Solubility in water of the drug substance powder"}, "[2]": {"conditions": "CYP2D6 inhibited by administering quinidine; cited from earlier work"}, "[3]": {"experiment": "Example 3 / FIG. 1: effect of CYP2D6 poor metabolizer status on pharmacokinetics of the tablet after 8 days of twice daily dosing", "conditions": "tablet 45 mg dextromethorphan hydrobromide/105 mg bupropion hydrochloride, 8 days twice daily; reference extensive or ultra-extensive CYP2D6 metabolizers; GMR"}, "[4]": {"experiment": "Inventor's clinical-trial finding: plasma levels in CYP2D6 poor metabolizers vs other patients after combination of bupropion and dextromethorphan", "conditions": "combination of bupropion and dextromethorphan administered"}, "[5]": {"tested_on": "patients with agitation associated with Alzheimer's disease", "experiment": "Phase 2/3 randomized, double-blind, controlled clinical trial of DM/BU in agitation associated with Alzheimer's disease", "assay_type": "in vivo, human", "experimental": "A Phase ⅔ randomized, double-blind, controlled, multicenter, U.S. clinical trial was conducted to evaluate the efficacy and safety of DM/BU in patients with agitation associated with Alzheimer's disease. […] An independent data monitoring committee performed an interim futility analysis and recommended no further randomization to the bupropion arm. Subsequently, patients were randomized in a 1:1 ratio to receive DM/BU or placebo. […] The minimum score on the CMAI is 29, corresponding to the total absence of symptoms, with higher scores corresponding to greater agitation. The primary endpoint of the study was the change from baseline in the CMAI total score at Week 5. P-values were calculated based on least square mean estimates.\nInclusion criteria included male or female […], diagnosis of probable Alzheimer's disease, according to the 2011 NIA-AA criteria, diagnosis of agitation, according to the IPA provisional definition of agitation, MMSE score between 10 and 24, an NPI-AA score≥4, and community dwelling. Exclusion criterial included dementia of non-Alzheimer's type and current use of a selective serotonin reuptake inhibitor and/or a serotonin and norepinephrine inhibitor (SSRI/SNRI). Demographics and baseline characteristics are shown in Table 9 of U.S. Pat. No. 10,898,453."}}, "data": [{"smiles": "CC(NC(C)(C)C)C(=O)c1cccc(Cl)c1.Cl", "note": "(racemic) [Bupropion hydrochloride, (±)-1-(3-chlorophenyl)-2-[(1,1-dimethylethyl)amino]-1-propanone hydrochloride]", "values": [{"measurement": "solubility in water", "setting": "[1]", "result": "highly soluble in water"}]}, {"smiles": "COc1ccc2c(c1)[C@]13CCCC[C@@H]1[C@H](C2)N(C)CC3", "note": "[dextromethorphan]", "values": [{"measurement": "AUC0-12 of dextromethorphan higher for CYP2D6 poor metabolizers compared to non-poor metabolizers", "setting": "[2]", "result": "about 46%"}, {"measurement": "Cmax of dextromethorphan higher for poor metabolizers compared to non-poor metabolizers", "setting": "[2]", "result": "about 40%"}, {"measurement": "increase in dextromethorphan AUC0-12 for CYP2D6 poor metabolizers", "setting": "[3]", "result": 3.40, "unit": "fold"}, {"measurement": "increase in dextromethorphan Cmax for CYP2D6 poor metabolizers", "setting": "[3]", "result": 3.00, "unit": "fold"}, {"measurement": "Cmax and AUC of dextromethorphan in poor metabolizers vs patients who are not poor metabolizers", "setting": "[4]", "result": "significantly higher"}]}, {"smiles": "Br.COc1ccc2c(c1)[C@]13CCCC[C@@H]1[C@H](C2)N(C)CC3", "note": "[Dextromethorphan hydrobromide, morphinan, 3-methoxy-17-methyl-, (9α, 13α, 14α), hydrobromide monohydrate]", "values": [{"measurement": "solubility in water", "setting": "[1]", "result": "sparingly soluble in water"}]}, {"smiles": "CC(NC(C)(C)C)C(=O)c1cccc(Cl)c1", "note": "(centres unmarked) [bupropion]", "values": [{"measurement": "mean reduction from baseline in CMAI total score", "setting": "[5]; Week 5 (primary endpoint), placebo 11.5, DM/BU vs placebo p=0.010", "result": 10.0, "unit": "points"}, {"measurement": "adverse event: diarrhea", "setting": "[5]; both, human, in vivo, 5 weeks", "result": 6.1, "unit": "%"}, {"measurement": "adverse event: dizziness", "setting": "[5]; both, human, in vivo, 5 weeks", "result": 10.2, "unit": "%"}, {"measurement": "adverse event: somnolence", "setting": "[5]; both, human, in vivo, 5 weeks", "result": 4.1, "unit": "%"}, {"measurement": "rate of discontinuation due to adverse events", "setting": "[5]; both, human, in vivo, 5 weeks", "result": 2.0, "unit": "%"}, {"measurement": "serious adverse events reported, patients", "setting": "[5]; both, human, in vivo, 5 weeks", "result": 8.2, "unit": "%"}, {"measurement": "deaths in arm", "setting": "[5]; one death in the placebo arm", "result": "one"}]}]}
